Reference: ChEMBL document CHEMBL4145498, “Novel inhibitors of the rRNA ErmC' methyltransferase to block resistance to macrolides, lincosamides, streptogramine B antibiotics” (Eur J Med Chem, 2018)

How the values were obtained:
[1] = biological target: T1, rRNA adenine N-6-methyltransferase (Staphylococcus aureus (strain N315)) (UniProt P0A0H2); assay: Inhibition of recombinant bacterial ErmC' expressed in Escherichia coli DH5alpha assessed as potentiation of erythromycin-mediated growth inhibition by measuring erythromycin MIC after 18 hrs by dilution method (reference value: > 2560 mg/L); details: Bacteria
T1 sequence (whole entry): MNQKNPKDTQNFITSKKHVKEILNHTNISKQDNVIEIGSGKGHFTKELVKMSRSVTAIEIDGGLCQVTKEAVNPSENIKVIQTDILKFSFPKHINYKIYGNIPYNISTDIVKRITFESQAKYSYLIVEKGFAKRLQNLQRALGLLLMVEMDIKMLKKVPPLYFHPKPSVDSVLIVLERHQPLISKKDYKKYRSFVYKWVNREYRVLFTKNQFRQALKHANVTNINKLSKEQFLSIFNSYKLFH

Escherichia coli = assay: Antibacterial activity against Escherichia coli DH5alpha expressing recombinant bacterial ErmC' after 18 hrs by dilution method; assay type: ADME, organism-based, DH5[alpha]
[2] = biological target: T2, rRNA adenine N-6-methyltransferase (Staphylococcus aureus (strain N315), UniProt P0A0H2); assay: Inhibition of bacterial C-terminal His6-tagged ErmC' (unknown origin) expressed in Escherichia coli BL21(DE3) assessed as decrease in rRNA methylation using [methyl-3H]AdoMet measured after 1 hr; parameters: species or system Bacteria
T2 sequence (P0A0H2 whole entry): T1 sequence (whole entry)

[3] = Cytotoxicity against HEK293 cells assessed as cell viability at 125 to 1000 uM after 24 hrs by MTT assay relative to control; assay type: cell-based; details: human, read-out: Activity
[4] = biological target: T1, rRNA adenine N-6-methyltransferase (Staphylococcus aureus (strain N315)); assay: Uncompetitive inhibition of bacterial C-terminal His6-tagged ErmC' expressed in Escherichia coli BL21(DE3) in presence of [methyl-3H]SAM; details: Bacteria
[5] = Cytotoxicity against HEK293 cells assessed as cell viability at 125 uM after 24 hrs by MTT assay relative to control; assay type: cell-based; details: human, read-out: Activity
[6] = Cytotoxicity against HEK293 cells assessed as cell viability at 1000 uM after 24 hrs by MTT assay relative to control; assay type: cell-based; details: human, read-out: Activity
HEK293 = assay: Cytotoxicity against HEK293 cells assessed as decrease in cell viability after 24 hrs by MTT assay; assay type: cell-based; details: human, hek293, 24 h

| SMILES | MIC [1] [µg/mL] | MIC (Escherichia coli) | IC50 [2] | also measured |
| --- | --- | --- | --- | --- |
| FC(F)(F)c1ccc(N2CCN(Cc3cn4ccccc4n3)CC2)nc1 | 2560 | >= 100 mg/L |  |  |
| FC(F)(F)c1ccc(N2CCN(Cc3c[nH]c(-c4ccccc4)n3)CC2)nc1 | 2560 | >= 100 mg/L |  |  |
| O=C(NCCNc1ncccc1C(F)(F)F)c1cnccn1 | 2560 | >= 100 mg/L | Not Active |  |
| O=C(c1csc(Nc2ncccn2)n1)N1CCN(c2ccc(C(F)(F)F)cn2)CC1 | 2000 | >= 100 mg/L |  | viability at 24 h, up to 1000 µM [3]: 59 to 67% |
| O=C(Nc1cccc(NCc2ccncc2)c1)c1ccccc1Cl | 2560 | >= 100 mg/L |  |  |
| O=C(Nc1nccs1)c1cc(-c2ccccn2)nc2ccccc12 | 2560 | >= 100 mg/L |  |  |
| CCCc1cc(C(=O)Nc2cccc(OCc3ccncc3)c2)[nH]n1 | > 2560 | >= 100 mg/L |  |  |
| COc1ccc(C(=O)CSc2nc(O)cc(=O)[nH]2)cc1 | 2000 | >= 100 mg/L |  |  |
| Cc1nccc(C(=O)Nc2cc(NC(=O)c3ccccc3)ccc2C)n1 | 2560 | >= 100 mg/L | Not Active |  |
| Cc1occc1C(=O)Nc1nc(CC(=O)Nc2ccccc2)cs1 | 2560 | >= 100 mg/L |  |  |
| Cc1cccc(Nc2nc(C(=O)N3CCN(c4ccc(C(F)(F)F)cn4)CC3)cs2)n1 | 2560 | >= 100 mg/L |  | alphaKi [4]: 155 µM; viability at 24 h, 125 µM [5]: 59%; viability at 24 h, 1000 µM [6]: 16%; Activity (HEK293): Dose-dependent effect |
| CCC1N=C(C)C(CN2CCN(c3ccc(C(F)(F)F)cn3)CC2)=N1 (stereo not drawn) | 2000 | >= 100 mg/L | Not Active |  |
| O=C(NC1CCN(c2nc3ccccc3s2)CC1)c1ccncc1 | 2560 | >= 100 mg/L |  |  |
| O=C(Cc1cn2ccsc2n1)Nc1cccc(N2CCCC2=O)c1 | 2560 | >= 100 mg/L |  |  |
| Cc1cc(S(N)(=O)=O)cc(NC(=O)Cn2cnc(C#N)n2)c1C | 2560 | >= 100 mg/L | Not Active |  |
| O=C(NCc1cccc(Cn2ccnc2)c1)c1cc2ccccc2o1 | > 2560 | >= 100 mg/L |  |  |
| Cc1nccn1-c1ccc(CNc2nc3ccccc3o2)cc1F | 2000 | >= 100 mg/L | Not Active |  |
| Nc1nc(N)nc(CSc2nnc(NCc3ccccc3)s2)n1 | 2560 | >= 100 mg/L |  |  |
| O=C(c1ccn[nH]1)N1CCN(c2ccc(C(F)(F)F)cn2)CC1 | 2560 | >= 100 mg/L | Not Active |  |
| O=C(Nc1ccn(CCc2ccncc2)n1)Nc1ccc(F)cc1F | > 2560 | >= 100 mg/L |  |  |
| Nn1c(SCc2nc3ccccc3[nH]2)nnc1-c1ccncc1 | > 2560 | >= 100 mg/L |  |  |
| O=C(Nc1ccncc1)c1ccn(COc2ccc(F)c(Cl)c2)n1 | 2000 | >= 100 mg/L |  |  |
| O=C(NCCNc1ccc(C(F)(F)F)cn1)c1cnccn1 | 2000 | >= 100 mg/L | Not Active |  |
